The source of these data is patent US20100216767A1, “QUINAZOLINES FOR PDK1 INHIBITION” (priority 2006, published 2010).

This assay concerns the target T1, PDK1 kinase (Homo sapiens, UniProt O15530).
T1 sequence (O15530 1-556): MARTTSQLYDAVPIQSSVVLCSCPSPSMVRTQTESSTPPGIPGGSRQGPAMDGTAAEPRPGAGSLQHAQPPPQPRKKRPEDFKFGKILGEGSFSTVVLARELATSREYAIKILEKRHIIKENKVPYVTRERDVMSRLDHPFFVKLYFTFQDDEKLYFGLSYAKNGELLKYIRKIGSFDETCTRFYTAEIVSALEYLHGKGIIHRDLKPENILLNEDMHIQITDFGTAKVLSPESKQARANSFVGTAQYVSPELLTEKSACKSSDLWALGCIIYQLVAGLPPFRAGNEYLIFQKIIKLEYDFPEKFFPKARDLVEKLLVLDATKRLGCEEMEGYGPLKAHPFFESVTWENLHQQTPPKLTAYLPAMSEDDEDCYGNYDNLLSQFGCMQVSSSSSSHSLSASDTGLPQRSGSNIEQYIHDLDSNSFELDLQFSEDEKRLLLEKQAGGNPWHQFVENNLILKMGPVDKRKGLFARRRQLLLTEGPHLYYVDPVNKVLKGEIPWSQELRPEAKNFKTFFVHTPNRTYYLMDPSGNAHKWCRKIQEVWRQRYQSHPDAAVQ
Nature of the assay: PDK1 Kinase Alpha Screen Assay. Format: biochemical. To be noted: Table 1; 10 μM ATP, 50 nM PDK1-4 peptide. As to the method:
Reagents/Concentrations: The PDK1-4 peptide substrate, biotin-[…]-NH2, (SEQ ID NO: 1), was purchased from the Tufts University Core Facility. The final concentration of PDK1-4 peptide substrate was 50 nM. The ATP substrate (adenosine-[…] triphosphate) was purchased from Roche Diagnostics. The final concentration of ATP substrate was 10 μM. Phospho-(Ser/Thr) PKA substrate antibody was purchased from Cell Signaling Technology. The final concentration of antibody was 0.3 mg/mL. The Alpha Screen Protein A detection kit containing donor and acceptor beads was purchased from PerkinElmer Life Sciences. The final concentration of both donor and acceptor beads was 25 μg/mL. Alpha Screen was used for detection. The biotinylated-PDK1-4 peptide was phosphorylated by PDK1 kinase using the ATP substrate. The biotinylated-PDK1-4 peptide substrate was bound to the streptavidin coated donor bead. The antibody was bound to the protein A coated acceptor bead. The antibody bound to the phosphorylated form of the biotinylated PDK-1 peptide substrate, bringing the donor and acceptor beads into close proximity. Laser irradiation of the donor bead at 680 nm generated a flow of short-lived singlet oxygen molecules. When the donor and acceptor beads were in close proximity, the reactive oxygen generated by the irradiation of the donor beads initiated a luminescence/fluorescence cascade in the acceptor beads. This process led to a highly amplified signal with output in the 530-620 nm range. Assays were carried out in 50 mM Tris, pH=7.5, 10 mM MgCl2, 0.1% BSA, 0.01% Tween-20, 2 mM dithiolthreitol, 2.5% dimethyl sulfoxide. Reactions were stopped by adding 50 mM Tris, pH=7.5, 90 mM EDTA, 0.1% BSA, 0.01% Tween-20.
Procedure: To 10 μl, of PDK1-4 peptide, […] of test compound in dimethyl sulfoxide was added. PDK1 kinase and ATP were mixed, and 10 μL of the PDK1 kinase/ATP mix was added to start the reaction. The reaction was allowed to proceed for 3-18 hours. The reactions were then stopped by adding 10 μL of the EDTA-containing stop buffer. Beads were mixed with antibody, and 25 μL of the bead/antibody mix was then added to the stopped reactions. Plates were incubated at room temperature overnight to allow for detection development before being read. The assay was run in a 384-well format plate.

`C#Cc1cc2cnc(Nc3ccc(C(=O)N4CCOCC4)cc3)nc2cc1OC` [Example 74, (4-(6-ethynyl-7-methoxy-quinazolin-2-ylamino)-phenyl)(morpholino)-methanone] came in with an IC50 of under 5 µM.
`NC(=O)c1ccc(Nc2ncc3cc(-c4nccs4)ccc3n2)cc1` [Example 75, 4-(6-(thiazol-2-yl)-quinazolin-2-ylamino)-benzamide] had an IC50 of under 5 µM.
Regarding `N#Cc1ccc2nc(Nc3ccc(N4CCOCC4)cc3)ncc2c1` [Example 76, 2-(4-morpholinophenyl-amino)quinazoline-6-carbonitrile], the IC50 was under 5 µM.
To `Brc1ccc2nc(Nc3ccc(N4CCOCC4)cc3)ncc2c1` [Example 77, 6-bromo-N-(4-morpholino-phenyl)quinazolin-2-amine] belongs under 5 µM.
To `N#Cc1ccc2nc(Nc3ccc(C(N)=O)cc3)ncc2c1` [Example 78, 4-(6-cyanoquinazolin-2-ylamino)benzamide] belongs under 5 µM; to `NC(=O)c1ccc(Nc2ncc3cc(Br)ccc3n2)cc1` [Example 79, 4-(6-bromoquinazolin-2-ylamino)benzamide], under 5 µM.
To `C#Cc1cc(OC)c2nc(Nc3cccc(N4CCOCC4)c3)ncc2c1` [Example 80, 6-ethynyl-8-methoxy-N-(3-morpholinophenyl)-quinazolin-2-amine] belongs under 5 µM; to `C#Cc1ccc2nc(Nc3ccc(C(=O)N4CCOCC4)cc3)ncc2c1` [Example 81, (4-(6-ethynylquinazolin-2-ylamino)phenyl)-(morpholino)methanone], under 5 µM; to `C#Cc1ccc2nc(Nc3ccc(N4CCOCC4)c(CN(C)C)c3)ncc2c1` [Example 82, N-(3-((dimethylamino)-methyl)-4-morpholino-phenyl)-6-ethynyl-quinazolin-2-amine], under 5 µM.
Turning to `C#Cc1ccc2nc(Nc3cc(CN(C)C)cc(NC(C)=O)c3)ncc2c1` [Example 83, N-(3-((dimethylamino)-methyl)-5-(6-ethynyl-quinazolin-2-ylamino)-phenyl)acetamide], the IC50 was under 5 µM.
To `CC(=O)Nc1cc(CN(C)C)cc(Nc2ncc3cc(-c4nccs4)ccc3n2)c1` [Example 84, N-(3-((dimethylamino)-methyl)-5-(6-(thiazol-2-yl)quinazolin-2-ylamino)-phenyl)acetamide] belongs under 5 µM; to `C#Cc1cc2cnc(Nc3cc(CN(C)C)cc(NC(C)=O)c3)nc2cc1OC` [Example 85, N-(3-((dimethylamino)methyl)-5-(6-ethynyl-7-methoxy-quinazolin-2-ylamino)-phenyl)acetamide], under 5 µM; to `C#Cc1cc(OC)c2nc(Nc3cc(CN(C)C)cc(NC(C)=O)c3)ncc2c1` [Example 86, N-(3-((dimethylamino)-methyl)-5-(6-ethynyl-8-methoxyquinazolin-2-ylamino)phenyl)acetamide], under 5 µM.
With `COc1cc(-c2nccs2)cc2cnc(Nc3cc(CN(C)C)cc(NC(C)=O)c3)nc12` [Example 87, N-(3-((dimethylamino)-methyl)-5-(8-methoxy-6-(thiazol-2-yl)quinazolin-2-ylamino)phenyl)acetamide] the figure was under 5 µM; with `C#Cc1cc(OC)c2nc(Nc3cc(CN(C)C)cc(NC(C)=O)c3)ncc2c1Cl` [Example 88, N-(3-(5-chloro-6-ethynyl-8-methoxyquinazolin-2-ylamino)-5-((dimethyl-amino)methyl)phenyl)-acetamide], under 5 µM; with `COc1cc(Br)c(Cl)c2cnc(Nc3ccc(C(=O)NC(C)C)cc3)nc12` [Example 89, 4-(6-bromo-5-chloro-8-methoxyquinazolin-2-ylamino)-N-isopropyl-benzamide], under 5 µM.
Compound `C#Cc1ccc2nc(Nc3cc(CN(C)C)cc(NC(C)=O)c3)ncc2c1Cl` [Example 90, N-(3-(5-chloro-6-ethynyl-quinazolin-2-ylamino)-5-((dimethylamino)methyl)-phenyl)acetamide] showed an IC50 of under 5 µM.
With `CC(=O)Nc1cc(CN(C)C)cc(Nc2ncc3c(Cl)c(-c4nccs4)ccc3n2)c1` [Example 91, N-(3-(5-chloro-6-(thiazol-2-yl)quinazolin-2-ylamino)-5-((dimethyl-amino)methyl)phenyl)-acetamide] the figure was under 5 µM; with `CC(=O)Nc1cc(CN(C)C)cc(Nc2ncc3cc(-c4cncnc4)ccc3n2)c1` [Example 92, N-(3-((dimethylamino)-methyl)-5-(6-(pyrimidin-5-yl)quinazolin-2-ylamino)-phenyl)acetamide], under 5 µM.
To `COc1ncccc1-c1ccc2nc(Nc3cc(CN(C)C)cc(NC(C)=O)c3)ncc2c1` [Example 93, N-(3-((dimethylamino)-methyl)-5-(6-(2-methoxy-pyridin-3-yl)quinazolin-2-ylamino)phenyl)acetamide] belongs 5 to 10 µM; to `COc1ncccc1-c1cc(OC)c2nc(Nc3cc(CN(C)C)cc(NC(C)=O)c3)ncc2c1` [Example 94, N-(3-((dimethylamino)-methyl)-5-(8-methoxy-6-(2-methoxypyridin-3-yl)-quinazolin-2-ylamino)-phenyl)acetamide], 5 to 10 µM; to `COc1cc(-c2cncnc2)cc2cnc(Nc3cc(CN(C)C)cc(NC(C)=O)c3)nc12` [Example 95, N-(3-((dimethylamino)-methyl)-5-(8-methoxy-6-(pyrimidin-5-yl)-quinazolin-2-ylamino)-phenyl)acetamide], under 5 µM.
To `C#Cc1cc2cnc(Nc3ccc(-c4nnn[nH]4)cc3)nc2cc1OC` [Example 96, N-(4-(1H-tetrazol-5-yl)-phenyl)-6-ethynyl-7-methoxyquinazolin-2-amine] belongs under 5 µM; to `C#Cc1cc2cnc(Nc3ccc(-n4cnnn4)cc3)nc2cc1OC` [Example 97, N-(4-(1H-tetrozol-1-yl)phenyl)-6-ethynyl-7-methoxyquinazolin-2-amine], under 5 µM; to `C#Cc1cc2cnc(Nc3cccc(-c4nnn[nH]4)c3)nc2cc1OC` [Example 98, N-(3-(1H-tetrazol-5-yl)phenyl)-6-ethynyl-7-methoxyquinazolin-2-amine], under 5 µM.
As to `C#Cc1ccc2nc(Nc3ccc(N4CCOCC4)cc3)ncc2c1Cl` [Example 99, 5-chloro-6-ethynyl-N-(4-morpholinophenyl)quinazolin-2-amine], the IC50 is under 5 µM.
To `c1csc(-c2ccc3nc(Nc4ccc(N5CCOCC5)cc4)ncc3c2)n1` [Example 100, N-(4-morpholinophenyl)-6-(thiazol-2-yl)quinazolin-2-amine] belongs under 5 µM.
To `C#Cc1cc(OC)c2nc(Nc3ccc(N4CCOCC4)cc3)ncc2c1Cl` [Example 101, 5-chloro-6-ethynyl-8-methoxy-N-(4-morpholinophenyl)-quinazolin-2-amine] belongs under 5 µM; to `COc1cc2nc(Nc3ccc(C(=O)N4CCOCC4)c(Cl)c3)ncc2cc1Br` [Example 102, (4-(6-bromo-7-methoxy-quinazolin-2-ylamino)-2-chlorophenyl)(morpholino)-methanone], under 5 µM.
With `C#Cc1cc2cnc(Nc3cccc(-n4cnnn4)c3)nc2cc1OC` [Example 103, N-(3-(1H-tetrazol-1-yl)phenyl)-6-ethynyl-7-methoxyquinazolin-2-amine] the figure was under 5 µM; with `COc1cc2nc(Nc3ccc(C(=O)N4CCOCC4)c(Cl)c3)ncc2cc1-c1nccs1` [Example 104], under 5 µM.

What is called IC50 is the concentration at which inhibition is half-maximal.
